# Assay results published in ChEMBL document CHEMBL1133460, “Synthesis and biological evaluation of certain alpha,beta-unsaturated ketones and their corresponding fused pyridines as antiviral and cytotoxic agents” (J Med Chem, 2000).
# Tested on: Tumor cell line
# Test: In vitro for median growth inhibitory conc. against leukemia (compounds full panel MG-MID/leukemia subpanel MG-MID)
# Type: functional
# Conditions: Homo sapiens; call rule not given here
row,Compound,GI50 [µM]
1,CN1CC2=C(OC(N)=C(C#N)C2c2cccs2)/C(=C/c2cccs2)C1 (stereo unspecified),3.2
2,Cc1ccc(/C=C2\CN(C)CC3=C2OC(N)=C(C#N)C3c2ccc(C)cc2)cc1 (stereo unspecified),5.1
3,COc1ccc(/C=C2\CN(C)CC3=C2OC(N)=C(C#N)C3c2ccc(OC)cc2)cc1 (stereo unspecified),9.1

# Tested on: Panel renal (Carcinoma cell lines)
# Test: In vitro growth inhibitory concentration against renal cancer cell lines
# Type: functional
# Conditions: Homo sapiens
row,Compound,TGI [µM]
1,CN1CC2=C(OC(N)=C(C#N)C2c2cccs2)/C(=C/c2cccs2)C1 (stereo unspecified),81.6
2,Cc1ccc(/C=C2\CN(C)CC3=C2OC(N)=C(C#N)C3c2ccc(C)cc2)cc1 (stereo unspecified),54.5
3,COc1ccc(/C=C2\CN(C)CC3=C2OC(N)=C(C#N)C3c2ccc(OC)cc2)cc1 (stereo unspecified),96.9

# Tested on: Tumor cell line
# Test: In vitro for median growth inhibitory concentration against breast cancer cell lines
# Type: functional
# Conditions: Homo sapiens
Compound,TGI [µM],GI50 [µM]
CN1CC2=C(OC(N)=C(C#N)C2c2cccs2)/C(=C/c2cccs2)C1 (stereo unspecified),27.9,–
Cc1ccc(/C=C2\CN(C)CC3=C2OC(N)=C(C#N)C3c2ccc(C)cc2)cc1 (stereo unspecified),30.7,–
COc1ccc(/C=C2\CN(C)CC3=C2OC(N)=C(C#N)C3c2ccc(OC)cc2)cc1 (stereo unspecified),–,48.6

# Tested on: Panel leukemia (Carcinoma cell lines)
# Test: In vitro growth inhibitory concentration against leukemia tumor cell lines
# Type: functional
# Conditions: Homo sapiens
row,Compound,TGI [µM]
1,CN1CC2=C(OC(N)=C(C#N)C2c2cccs2)/C(=C/c2cccs2)C1 (stereo unspecified),27.6
2,Cc1ccc(/C=C2\CN(C)CC3=C2OC(N)=C(C#N)C3c2ccc(C)cc2)cc1 (stereo unspecified),17.9
3,COc1ccc(/C=C2\CN(C)CC3=C2OC(N)=C(C#N)C3c2ccc(OC)cc2)cc1 (stereo unspecified),49.9

# Tested on: Tumor cell line
# Test: In vitro for median growth inhibitory concentration against prostate cancer cell lines
# Type: functional
# Conditions: Homo sapiens
row,Compound,GI50 [µM]
1,CN1CC2=C(OC(N)=C(C#N)C2c2cccs2)/C(=C/c2cccs2)C1 (stereo unspecified),13.5
2,Cc1ccc(/C=C2\CN(C)CC3=C2OC(N)=C(C#N)C3c2ccc(C)cc2)cc1 (stereo unspecified),29.4
3,COc1ccc(/C=C2\CN(C)CC3=C2OC(N)=C(C#N)C3c2ccc(OC)cc2)cc1 (stereo unspecified),79.4

# Tested on: Ovarian cancer cell line
# Test: In vitro growth inhibitory concentration against ovarian cancer cell lines
# Type: functional
# Conditions: Homo sapiens
row,Compound,TGI [µM]
1,CN1CC2=C(OC(N)=C(C#N)C2c2cccs2)/C(=C/c2cccs2)C1 (stereo unspecified),73.2
2,Cc1ccc(/C=C2\CN(C)CC3=C2OC(N)=C(C#N)C3c2ccc(C)cc2)cc1 (stereo unspecified),55.7
3,COc1ccc(/C=C2\CN(C)CC3=C2OC(N)=C(C#N)C3c2ccc(OC)cc2)cc1 (stereo unspecified),> 100

# Tested on: Panel CNS (Carcinoma cell lines)
# Test: In vitro growth inhibitory concentration against CNS cancer cell lines
# Type: functional
# Conditions: Homo sapiens
row,Compound,TGI [µM]
1,CN1CC2=C(OC(N)=C(C#N)C2c2cccs2)/C(=C/c2cccs2)C1 (stereo unspecified),> 100
2,Cc1ccc(/C=C2\CN(C)CC3=C2OC(N)=C(C#N)C3c2ccc(C)cc2)cc1 (stereo unspecified),83.6
3,COc1ccc(/C=C2\CN(C)CC3=C2OC(N)=C(C#N)C3c2ccc(OC)cc2)cc1 (stereo unspecified),> 100

# Tested on: Human immunodeficiency virus 1
# Test: In vitro effective concentration against HIV-1 cytopathic effect in T4 cells; Inactive
# Type: functional, organism-based
# Conditions: not given
row,Compound,EC50
1,CN1CC2=C(OC(N)=C(C#N)C2c2cccs2)/C(=C/c2cccs2)C1 (stereo unspecified),Not Active
2,Cc1ccc(/C=C2\CN(C)CC3=C2OC(N)=C(C#N)C3c2ccc(C)cc2)cc1 (stereo unspecified),Not Active
3,COc1ccc(/C=C2\CN(C)CC3=C2OC(N)=C(C#N)C3c2ccc(OC)cc2)cc1 (stereo unspecified),Not Active

# Tested on: Tumor cell line
# Test: In vitro for median growth inhibitory concentration against renal cancer cell lines
# Type: functional
# Conditions: Homo sapiens
row,Compound,GI50 [µM]
1,CN1CC2=C(OC(N)=C(C#N)C2c2cccs2)/C(=C/c2cccs2)C1 (stereo unspecified),32.5
2,Cc1ccc(/C=C2\CN(C)CC3=C2OC(N)=C(C#N)C3c2ccc(C)cc2)cc1 (stereo unspecified),18.1
3,COc1ccc(/C=C2\CN(C)CC3=C2OC(N)=C(C#N)C3c2ccc(OC)cc2)cc1 (stereo unspecified),40.4

# Tested on: Tumor cell line
# Test: In vitro for median growth inhibitory concentration against ovarian cancer cell lines
# Type: functional
# Conditions: Homo sapiens
row,Compound,GI50 [µM]
1,CN1CC2=C(OC(N)=C(C#N)C2c2cccs2)/C(=C/c2cccs2)C1 (stereo unspecified),25
2,Cc1ccc(/C=C2\CN(C)CC3=C2OC(N)=C(C#N)C3c2ccc(C)cc2)cc1 (stereo unspecified),15.5
3,COc1ccc(/C=C2\CN(C)CC3=C2OC(N)=C(C#N)C3c2ccc(OC)cc2)cc1 (stereo unspecified),38.1

# Tested on: Tumor cell line
# Test: In vitro for median growth inhibitory concentration against CNS cancer cell lines
# Type: functional
# Conditions: Homo sapiens
row,Compound,GI50 [µM]
1,CN1CC2=C(OC(N)=C(C#N)C2c2cccs2)/C(=C/c2cccs2)C1 (stereo unspecified),42.2
2,Cc1ccc(/C=C2\CN(C)CC3=C2OC(N)=C(C#N)C3c2ccc(C)cc2)cc1 (stereo unspecified),37.7
3,COc1ccc(/C=C2\CN(C)CC3=C2OC(N)=C(C#N)C3c2ccc(OC)cc2)cc1 (stereo unspecified),60.5

# Tested on: not listed separately
# Test: In vitro growth inhibitory concentration against colon cancer tumor cell lines
# Type: functional
# Conditions: Homo sapiens
row,Compound,TGI [µM]
1,CN1CC2=C(OC(N)=C(C#N)C2c2cccs2)/C(=C/c2cccs2)C1 (stereo unspecified),87.3
2,Cc1ccc(/C=C2\CN(C)CC3=C2OC(N)=C(C#N)C3c2ccc(C)cc2)cc1 (stereo unspecified),43.9
3,COc1ccc(/C=C2\CN(C)CC3=C2OC(N)=C(C#N)C3c2ccc(OC)cc2)cc1 (stereo unspecified),97.4

# Tested on: Tumor cell line
# Test: In vitro for median growth inhibitory concentration against melanoma cell lines
# Type: functional
# Conditions: Homo sapiens
row,Compound,GI50 [µM]
1,CN1CC2=C(OC(N)=C(C#N)C2c2cccs2)/C(=C/c2cccs2)C1 (stereo unspecified),36.3
2,Cc1ccc(/C=C2\CN(C)CC3=C2OC(N)=C(C#N)C3c2ccc(C)cc2)cc1 (stereo unspecified),26.6
3,COc1ccc(/C=C2\CN(C)CC3=C2OC(N)=C(C#N)C3c2ccc(OC)cc2)cc1 (stereo unspecified),70.7

# Tested on: not listed separately
# Test: Full panel mean-graph midpoint (MG-MID)
# Conditions: not given
row,Compound,MG-MID [µM]
1,CN1CC2=C(OC(N)=C(C#N)C2c2cccs2)/C(=C/c2cccs2)C1 (stereo unspecified),57.8
2,Cc1ccc(/C=C2\CN(C)CC3=C2OC(N)=C(C#N)C3c2ccc(C)cc2)cc1 (stereo unspecified),51.1
3,COc1ccc(/C=C2\CN(C)CC3=C2OC(N)=C(C#N)C3c2ccc(OC)cc2)cc1 (stereo unspecified),85.6

# Tested on: Breast cancer cell line
# Test: In vitro growth inhibitory concentration against breast cancer cell lines
# Type: functional
# Conditions: Homo sapiens
row,Compound,TGI [µM]
1,CN1CC2=C(OC(N)=C(C#N)C2c2cccs2)/C(=C/c2cccs2)C1 (stereo unspecified),57.7
2,Cc1ccc(/C=C2\CN(C)CC3=C2OC(N)=C(C#N)C3c2ccc(C)cc2)cc1 (stereo unspecified),70.1
3,COc1ccc(/C=C2\CN(C)CC3=C2OC(N)=C(C#N)C3c2ccc(OC)cc2)cc1 (stereo unspecified),93.8

# Tested on: Tumor cell line
# Test: In vitro for growth inhibitory concentration against non small lung cancer cell lines
# Type: functional
# Conditions: Homo sapiens
row,Compound,TGI [µM]
1,CN1CC2=C(OC(N)=C(C#N)C2c2cccs2)/C(=C/c2cccs2)C1 (stereo unspecified),75.5
2,Cc1ccc(/C=C2\CN(C)CC3=C2OC(N)=C(C#N)C3c2ccc(C)cc2)cc1 (stereo unspecified),54.1
3,COc1ccc(/C=C2\CN(C)CC3=C2OC(N)=C(C#N)C3c2ccc(OC)cc2)cc1 (stereo unspecified),95.5

# Tested on: Tumor cell line
# Test: In vitro for median growth inhibitory concentration against non small lung cancer cell lines
# Type: functional
# Conditions: Homo sapiens
row,Compound,GI50 [µM]
1,CN1CC2=C(OC(N)=C(C#N)C2c2cccs2)/C(=C/c2cccs2)C1 (stereo unspecified),16.3
2,Cc1ccc(/C=C2\CN(C)CC3=C2OC(N)=C(C#N)C3c2ccc(C)cc2)cc1 (stereo unspecified),3.3
3,COc1ccc(/C=C2\CN(C)CC3=C2OC(N)=C(C#N)C3c2ccc(OC)cc2)cc1 (stereo unspecified),36.7

# Tested on: MT4
# Test: In vitro inhibitory activity against uninfected T4 cells
# Type: functional, cell-based
# Conditions: Homo sapiens
row,Compound,IC50 [µM]
1,CN1CC2=C(OC(N)=C(C#N)C2c2cccs2)/C(=C/c2cccs2)C1 (stereo unspecified),9
2,Cc1ccc(/C=C2\CN(C)CC3=C2OC(N)=C(C#N)C3c2ccc(C)cc2)cc1 (stereo unspecified),11.1
3,COc1ccc(/C=C2\CN(C)CC3=C2OC(N)=C(C#N)C3c2ccc(OC)cc2)cc1 (stereo unspecified),30.4

# Tested on: Panel melanoma (Carcinoma cell lines)
# Test: In vitro growth inhibitory concentration against melanoma cancer cell lines
# Type: functional
# Conditions: Homo sapiens
row,Compound,TGI [µM]
1,CN1CC2=C(OC(N)=C(C#N)C2c2cccs2)/C(=C/c2cccs2)C1 (stereo unspecified),87
2,Cc1ccc(/C=C2\CN(C)CC3=C2OC(N)=C(C#N)C3c2ccc(C)cc2)cc1 (stereo unspecified),59.5
3,COc1ccc(/C=C2\CN(C)CC3=C2OC(N)=C(C#N)C3c2ccc(OC)cc2)cc1 (stereo unspecified),93.9

# Tested on: Tumor cell line
# Test: In vitro for median growth inhibitory concentration against colon cancer cell lines
# Type: functional
# Conditions: Homo sapiens
row,Compound,GI50 [µM]
1,CN1CC2=C(OC(N)=C(C#N)C2c2cccs2)/C(=C/c2cccs2)C1 (stereo unspecified),17.3
2,Cc1ccc(/C=C2\CN(C)CC3=C2OC(N)=C(C#N)C3c2ccc(C)cc2)cc1 (stereo unspecified),16.6
3,COc1ccc(/C=C2\CN(C)CC3=C2OC(N)=C(C#N)C3c2ccc(OC)cc2)cc1 (stereo unspecified),41.2

# Tested on: not listed separately
# Test: Full panel mean-graph midpoint (MG-MID).
# Conditions: not given
row,Compound,MG-MID [µM]
1,CN1CC2=C(OC(N)=C(C#N)C2c2cccs2)/C(=C/c2cccs2)C1 (stereo unspecified),11.6
2,Cc1ccc(/C=C2\CN(C)CC3=C2OC(N)=C(C#N)C3c2ccc(C)cc2)cc1 (stereo unspecified),16.9
3,COc1ccc(/C=C2\CN(C)CC3=C2OC(N)=C(C#N)C3c2ccc(OC)cc2)cc1 (stereo unspecified),33.3

# Tested on: Panel prostate (Carcinoma cell lines)
# Test: In vitro growth inhibitory concentration against prostate cancer cell lines
# Type: functional
# Conditions: Homo sapiens
row,Compound,TGI [µM]
1,CN1CC2=C(OC(N)=C(C#N)C2c2cccs2)/C(=C/c2cccs2)C1 (stereo unspecified),90.9
2,Cc1ccc(/C=C2\CN(C)CC3=C2OC(N)=C(C#N)C3c2ccc(C)cc2)cc1 (stereo unspecified),66.2
3,COc1ccc(/C=C2\CN(C)CC3=C2OC(N)=C(C#N)C3c2ccc(OC)cc2)cc1 (stereo unspecified),> 100
